# Laboratory results taken from patent US20250345318A1, “COMPOUND AND USE THEREOF IN PREVENTING OR TREATING RADIATION DAMAGE” (SIMCERE PHARMACEUTICAL CO., LTD., priority 2022, published 2025).
# Legend:
# [1] = system: BEAS-2B cells transfected with JWA-knockdown plasmids; test: Colony formation of BEAS-2B cells transfected with JWA-knockdown plasmids (Example 22); assay type: cell-based, human; details: JAC4-treated JWA-knockdown BEAS-2B vs JAC4-treated si-Control
# Protocol: 1. SPCA-1 and BEAS-2B cells (or SPCA-1 and BEAS-2B cells transfected with JWA-knockdown plasmids) in the exponential growth phase were plated in 6-well plates at a specific amount. The number of plated cells is as follows
# 2. After the cells adhered to the container wall, the cells were treated (or not treated) with […] JAC4 and treated with X-ray of 0, 2, 4, or 6 Gy. The medium was replaced with a fresh medium containing JAC4 at the corresponding concentration once every 2 days (or the cells were treated with X-ray of 0, 2, 4, or 6 Gy after adhesion, and the medium was replaced with a fresh medium once every 2 days).
# 3. After the cells were cultured for 10-14 days, colonies were visually observed. The culture medium was discarded, and the cells were fixed with methanol for 10-20 min, stained with crystal violet for 10 min, slowly washed with flowing clear water thrice, photographed, and counted for colonies containing>50 cells.
# 4. The colony forming efficiency (CFE)=(number of colonies formed/number of seeded cells) 100% was calculated, and the cell survival fraction (SF)=(colony forming efficiency of treatment group/colony forming efficiency of 0 Gy group)×100% was calculated from the colony forming efficiency. […]
# [2] = system: SPCA-1 cells; test: Subcutaneous SPCA-1 lung cancer xenograft model with X-ray radiation therapy (Example 20); assay type: in vivo; details: for tumor inhibition rate: day 13, vs control group
# Protocol: SPCA-1 cells in the logarithmic growth phase were subcutaneously injected into male BALB/C nude mice aged 4-5 weeks at 5×10^6 cells/100 μL […]. When the tumor volume reached 60-100 mm^3 (tumor volume=length×width^2/2), the mice were randomized into a vehicle control group, a 100 mg/kg JAC4 group (daily treatment), a 3 Gy×5 X-ray radiation group (5 consecutive days of radiation), and a 100 mg/kg JAC4+3 Gy×5 X-ray radiation group, each containing 6 mice. The formulation of the vehicle for JAC4 was polyethylene glycol:ethanol:physiological saline=40:7.5:52.5, v/v/v. The vehicle group and the treatment groups were given the vehicle or the treatment at the same volume by the same route, respectively. The mice were kept anesthetized by isoflurane through a mask in a supine posture. The irradiation range was adjusted to the tumor and the whole lung with a width of about 2 cm through the width indicating lamp and the beam limiting device of the system. The chamber was closed, and the irradiation time was set to about 126 s according to the dose rate to enable the total dose to reach 3 Gy. The irradiator was turned on for the irradiation. 100 mg/kg JAC4 was administered intragastrically daily. The body weight and tumor volume were measured daily and the modeling was terminated on day 13 post-dose.
# After the modeling was finished, the tumor tissue was subjected to HE staining according to the following specific procedures: 3 mice were randomly selected to provide the tumor tissue for HE staining in each group, and 6 fields of view were randomly selected for inspection.
# [3] = system: C57BL/6 male mice; test: Lengths of small intestine and colon, acute radiation enteritis (Example 11); assay type: in vivo; details: JAC4 100 mg/kg oral + abdominal X-ray 12 Gy
# Protocol: C57BL/6 male mice (27.6±1.9 g in body weight) aged 10 weeks were divided into 3 groups of 6 mice each. JAC4 (100 mg/kg) or an equal volume of vehicle (polyethylene glycol:ethanol:physiological saline=40:7.5:52.5, v/v/v) was orally administered to the mice once daily for 7 consecutive days. After that, the mice were subjected to abdominal X-ray irradiation (12 Gy) and JAC4 or vehicle treatment was continued. After 4 days, blood samples and small intestine were collected.
# The small intestine epithelial mucosal barrier is located at the interface between luminal micro-organisms and the mucosal immune system, and can maintain the intestinal mucosal barrier homeostasis. The integrity of the small intestine mucosal barrier is determined by a number of factors, including the tight junction proteins, proteins in other cell junction complexes, and the like. JAC4 has a protective effect on the small intestine mucosal barrier. The disruption of the small intestine mucosal barrier may lead to radiation enteritis and a reduction in the length of small intestine due to the inflammatory edema.
# [4] = system: BEAS-2B cells; test: Apoptosis (Hoechst 33342) and mitochondrial membrane potential (JC-1), BEAS-2B (Example 22); assay type: cell-based, human
# Protocol: Severe DSBs may cause apoptosis. SPCA-1 and BEAS-2B cells were plated and cultured for 24 h before they were treated with 10 μM JAC4 for 24 h and 4 Gy X-ray for 24 h. The cells were stained with Hoechst 33342 (see Hoechst staining for apoptosis detection in Example 13) to evaluate the effect of JAC4 in combination with radiation on apoptosis. […] The decrease in mitochondrial membrane potential (JC-1) is a marker event in the early stage of apoptosis. The mitochondrial membrane potential was measured using fluorescent probe JC-1. The red fluorescence indicates a high mitochondrial membrane potential leading to JC-1 aggregate formation, and the green fluorescence indicates the mitochondrial membrane potential depolarization. The fluorescence ratio of red to green reflects the mitochondrial membrane potential and the number of early apoptotic cells.
# [5] = system: C57BL/6 male mice; test: Dose-response of protection against total body X-ray irradiation: body weight, small intestine villus length (Example 5); assay type: in vivo
# Protocol: C57BL/6 male mice (24.8±1.6 g in body weight) aged 10 weeks were divided into 6 groups: a vehicle control group, a JAC4 (200 mg/kg) treatment group, a vehicle control+radiation group, and JAC4 intervention (50 mg/kg, 100 mg/kg, and 200 mg/kg)+radiation groups, with 12 mice in each group. JAC4 or an equal volume of vehicle (polyethylene glycol:ethanol:physiological saline=47.5:7.5:50, v/v/v) was orally administered to the mice once daily for 7 consecutive days. After that, the mice in the radiation groups were subjected to total body X-ray irradiation (6 Gy). The JAC4 or vehicle treatment was continued for 3 days.
# The body weights of the mice before and after the total body X-ray irradiation were measured, and the body weight curves are shown in FIG. 8.
# HE staining was performed on the small intestine tissues of mice subjected to total body X-ray irradiation. The length of the small intestine villi in all groups was measured and the results were statistically analyzed. The specific procedures are as follows: 3 mice were randomly selected from each group for statistical analysis of their small intestine tissue HE staining images, and for each mouse, 6 fields of view were randomly selected for inspection (** p<0.01, *** p<0.001).
smiles,measurement,setting,value
c1ccc(CSc2nnc(C3COc4ccccc4O3)o2)nc1 (centres unmarked) [JAC4],cell survival rate (radiosensitization curve),[1],significantly decreased
same,tumor inhibition rate,[2]; 100 mg/kg JAC4 + 3 Gy×5 X-ray combination therapy,78.05%
same,tumor inhibition rate,"[2]; 100 mg/kg JAC4 intragastric daily, monotherapy",25.45%
same,tumor volume,[2]; 100 mg/kg JAC4 monotherapy,significantly smaller than the control group
same,tumor-to-body weight ratio,[2]; JAC4 + X-ray combination vs X-ray monotherapy group,significantly reduced
same,H&E staining of tumor tissues,[2]; JAC4 in combination with X-ray,promotes the necrosis of tumor tissues
same,death,"[2]; all groups, JAC4 100 mg/kg with or without X-ray",no death occurred
same,body weight,"[2]; among all groups, JAC4 100 mg/kg with or without X-ray",no significant changes
same,small intestine length,[3]; 4 days after,34.83±1.44 cm
same,length of the colon,[3]; among the groups,no statistically significant differences
same,apoptosis (Hoechst 33342),[4]; 10 μM JAC4 24 h + 4 Gy X-ray 24 h,decreased the pro-apoptotic effect of X-ray
same,mitochondrial membrane potential (JC-1),[4]; JAC4 in combination with X-ray,reversed the X-ray-induced decrease in mitochondrial membrane potential
same,body weight loss after radiation,"[5]; JAC4 50, 100, 200 mg/kg oral + TBI 6 Gy vs vehicle+radiation",slower body weight loss
same,small intestine villus length,"[5]; day 3 after TBI 6 Gy, JAC4 50 mg/kg oral",249.42±27.19 μm
same,small intestine villus length,"[5]; day 3 after TBI 6 Gy, JAC4 100 mg/kg oral",244.78±40.74 μm
same,small intestine villus length,"[5]; day 3 after TBI 6 Gy, JAC4 200 mg/kg oral",212.43±27.99 μm
same,small intestine villus length,"[5]; day 7 after TBI 6 Gy, JAC4 50 mg/kg oral",235.57±24.34 μm
same,small intestine villus length,"[5]; day 7 after TBI 6 Gy, JAC4 100 mg/kg oral",254.95±28.91 μm
same,small intestine villus length,"[5]; day 7 after TBI 6 Gy, JAC4 200 mg/kg oral",259.17±17.56 μm
same,small intestine villus length,"[5]; non-radiation, JAC4 200 mg/kg oral",306.78±14.64 μm
